Source: patent US6337351B1, “Pharmaceutical compositions and methods for use” (Targacept, Inc., priority 1998, dated 2002)
pEC50, pKi: −log10 of the molar value.

Tests used:
[1] = test system: ganglionic-type nicotinic acetylcholine receptors; assay: Interaction with ganglion receptors; assay type: cell-based; settings: at a concentration of 100 uM; relative to maximal activation by (S)-(-)-nicotine
Description: By this is meant that a particular dose of compound resulting in prevention and/or treatment of a CNS disorder, is essentially ineffective in eliciting activation of certain ganglionic-type nicotinic receptors. […] As such, such compounds have poor ability to cause isotopic rubidium ion flux through nicotinic receptors in cell preparations derived from the adrenal gland. Generally, typical preferred compounds useful in carrying out the present invention activate isotopic rubidium ion flux by less than 15 percent, often by less than 5 percent, of that maximally provided by S(−) nicotine.
Determination of Interaction with Ganglion Receptors
(§1) The determination of the interaction of the compounds with ganglionic receptors was carried out in accordance with the techniques described in U.S. Pat. No. 5,597,919 to Dull et al. The maximal activation for individual compounds (Emax) was determined as a percentage of the maximal activation induced by (S)-(−)-nicotine. Reported Emax values represent the amount released relative to (S)-(−)-nicotine on a percentage basis.

dopamine release = assay: Dopamine release; assay type: cell-based; settings: for Emax: amount released relative to (S)-(-)-nicotine
Procedure: Determination of Dopamine Release
Dopamine release was measured using the techniques described in U.S. Pat. No. 5,597,919 to Dull et al. Release is expressed as a percentage of release obtained with a concentration of (S)-(−)-nicotine resulting in maximal effects. Reported EC50 values are expressed in nM, and Emax values represent the amount released relative to (S)-(−)-nicotine on a percentage basis.

[2] = target: T1, muscle-type nicotinic acetylcholine receptors (Homo sapiens, UniProt P02708+P07510+Q07001); assay: Interaction with muscle receptors; assay type: cell-based; settings: at a concentration of 100 uM; relative to maximal activation by (S)-(-)-nicotine
T1 construct: cell preparations expressing muscle-type nicotinic acetylcholine receptors; endogenous in cells
Description: The compounds of the present invention, when employed in effective amounts in accordance with the method of the present invention, lack the ability to elicit activation of nicotinic receptors of human muscle to any significant degree. […] Generally, typical preferred compounds useful in carrying the present invention activate isotopic rubidium ion flux by less than 15 percent, often by less than 5 percent, of that maximally provided by S(−) nicotine.
Determination of Interaction with Muscle Receptors
as §1, with “muscle” for “ganglionic”

CNS nicotinic receptors = CNS nicotinic receptors (Rattus norvegicus, UniProt P09483+P12390); assay: Binding to relevant receptor sites; settings: inhibition constants calculated from IC50 values by the method of Cheng et al.
Procedure: Determination of Binding to Relevant Receptor Sites
Binding of the compounds to relevant receptor sites was determined in accordance with the techniques described in U.S. Pat. No. 5,597,919 to Dull et al. Inhibition constants (Ki values), reported in nM, were calculated from the IC50 values using the method of Cheng et al., Biochem, Pharmacol. 22:3099 (1973).

Chain of CNS nicotinic receptors (P09483 31-630): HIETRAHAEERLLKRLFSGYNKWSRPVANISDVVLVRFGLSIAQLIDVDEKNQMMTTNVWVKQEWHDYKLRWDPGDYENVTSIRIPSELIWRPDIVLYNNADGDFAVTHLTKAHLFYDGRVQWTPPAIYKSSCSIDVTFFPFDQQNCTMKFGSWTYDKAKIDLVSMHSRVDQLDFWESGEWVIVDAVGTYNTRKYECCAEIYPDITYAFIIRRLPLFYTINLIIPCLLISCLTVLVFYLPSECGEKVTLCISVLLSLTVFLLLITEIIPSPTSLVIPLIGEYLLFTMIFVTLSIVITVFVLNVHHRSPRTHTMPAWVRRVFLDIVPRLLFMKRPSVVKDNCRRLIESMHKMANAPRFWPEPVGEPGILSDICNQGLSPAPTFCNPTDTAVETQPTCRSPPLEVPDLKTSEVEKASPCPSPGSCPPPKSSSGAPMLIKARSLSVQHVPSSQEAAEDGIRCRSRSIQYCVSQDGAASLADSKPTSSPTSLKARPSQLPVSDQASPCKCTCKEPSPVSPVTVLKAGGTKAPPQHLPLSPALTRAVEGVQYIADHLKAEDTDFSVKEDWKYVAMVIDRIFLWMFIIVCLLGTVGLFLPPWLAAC
Chain of CNS nicotinic receptors (P12390 25-500): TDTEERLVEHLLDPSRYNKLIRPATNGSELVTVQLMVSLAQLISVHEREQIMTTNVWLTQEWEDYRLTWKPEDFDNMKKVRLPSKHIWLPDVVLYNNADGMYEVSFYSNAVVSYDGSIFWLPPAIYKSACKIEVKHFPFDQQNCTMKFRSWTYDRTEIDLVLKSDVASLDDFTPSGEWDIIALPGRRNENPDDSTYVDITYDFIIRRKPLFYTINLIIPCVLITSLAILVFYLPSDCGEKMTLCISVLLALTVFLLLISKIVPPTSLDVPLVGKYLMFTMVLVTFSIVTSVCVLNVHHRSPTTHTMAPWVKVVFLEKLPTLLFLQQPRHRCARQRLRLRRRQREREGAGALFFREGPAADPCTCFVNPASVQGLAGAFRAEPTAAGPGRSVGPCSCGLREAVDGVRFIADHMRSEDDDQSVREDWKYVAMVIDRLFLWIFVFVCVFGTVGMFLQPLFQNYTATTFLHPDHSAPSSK
T1 sequence (P02708 21-457): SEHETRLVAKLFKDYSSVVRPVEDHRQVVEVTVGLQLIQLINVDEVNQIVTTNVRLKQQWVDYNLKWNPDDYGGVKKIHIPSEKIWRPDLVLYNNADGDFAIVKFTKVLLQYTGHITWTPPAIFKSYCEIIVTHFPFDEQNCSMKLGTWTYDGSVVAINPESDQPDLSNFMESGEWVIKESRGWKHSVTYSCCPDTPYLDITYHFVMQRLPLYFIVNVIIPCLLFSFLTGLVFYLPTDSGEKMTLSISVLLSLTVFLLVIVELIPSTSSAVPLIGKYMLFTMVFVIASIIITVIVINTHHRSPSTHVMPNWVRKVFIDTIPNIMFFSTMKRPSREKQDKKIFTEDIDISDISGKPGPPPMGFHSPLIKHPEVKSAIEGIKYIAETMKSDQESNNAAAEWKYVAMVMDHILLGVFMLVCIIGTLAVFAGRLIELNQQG
T1 sequence (P11230 24-501 partner): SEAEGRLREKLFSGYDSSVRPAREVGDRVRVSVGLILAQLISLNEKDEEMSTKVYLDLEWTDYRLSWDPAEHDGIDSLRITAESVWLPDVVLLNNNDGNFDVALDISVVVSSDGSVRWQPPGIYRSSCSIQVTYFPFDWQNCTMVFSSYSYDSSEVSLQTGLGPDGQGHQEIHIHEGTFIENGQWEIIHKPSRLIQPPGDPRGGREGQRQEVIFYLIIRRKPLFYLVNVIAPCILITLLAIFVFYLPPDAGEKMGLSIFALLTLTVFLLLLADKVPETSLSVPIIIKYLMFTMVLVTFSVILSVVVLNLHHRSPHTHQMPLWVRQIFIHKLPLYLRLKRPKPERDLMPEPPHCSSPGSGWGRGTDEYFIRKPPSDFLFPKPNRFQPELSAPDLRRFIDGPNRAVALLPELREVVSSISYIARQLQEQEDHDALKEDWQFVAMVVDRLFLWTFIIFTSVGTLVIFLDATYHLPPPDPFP
T1 sequence (Q07001 22-517): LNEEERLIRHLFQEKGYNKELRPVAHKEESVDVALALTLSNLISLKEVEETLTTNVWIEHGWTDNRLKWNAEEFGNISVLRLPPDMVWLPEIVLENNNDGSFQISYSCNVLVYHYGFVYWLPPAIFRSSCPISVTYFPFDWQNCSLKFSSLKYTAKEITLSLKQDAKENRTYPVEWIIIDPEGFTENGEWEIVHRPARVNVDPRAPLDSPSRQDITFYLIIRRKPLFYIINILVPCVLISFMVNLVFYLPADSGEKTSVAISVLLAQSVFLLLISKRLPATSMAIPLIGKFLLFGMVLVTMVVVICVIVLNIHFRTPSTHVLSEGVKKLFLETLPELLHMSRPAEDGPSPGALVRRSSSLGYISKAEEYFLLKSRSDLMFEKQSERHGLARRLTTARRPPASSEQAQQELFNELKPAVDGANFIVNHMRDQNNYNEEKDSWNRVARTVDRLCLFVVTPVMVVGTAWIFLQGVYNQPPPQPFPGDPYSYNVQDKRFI
T1 sequence (P07510 23-517): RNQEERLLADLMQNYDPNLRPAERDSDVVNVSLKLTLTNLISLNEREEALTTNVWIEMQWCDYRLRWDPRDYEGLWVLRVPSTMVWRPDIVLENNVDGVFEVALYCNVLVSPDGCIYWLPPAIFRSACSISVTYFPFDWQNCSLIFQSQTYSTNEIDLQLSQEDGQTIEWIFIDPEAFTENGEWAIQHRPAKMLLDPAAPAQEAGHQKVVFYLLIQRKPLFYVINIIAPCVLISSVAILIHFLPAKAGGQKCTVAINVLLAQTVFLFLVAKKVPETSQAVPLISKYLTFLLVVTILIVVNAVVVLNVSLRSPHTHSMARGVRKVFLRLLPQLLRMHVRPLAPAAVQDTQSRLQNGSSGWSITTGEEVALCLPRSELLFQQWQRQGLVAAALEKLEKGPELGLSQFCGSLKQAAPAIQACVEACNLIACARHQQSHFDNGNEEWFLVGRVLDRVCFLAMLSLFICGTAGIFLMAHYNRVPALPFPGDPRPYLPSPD

Compound	Emax at ganglionic-type receptors [1]	pEC50 (dopamine release)	Emax (dopamine release)	Emax at 100 µM [2]	pKi (CNS nicotinic receptors)
NCC/C=C/c1cccc(N)c1 [Sample No. 1, (E)-4-(3-aminophenyl)-3-buten-1-amine]	4%	4.90	74%	0%	–
CNCC/C=C/c1cccc(N)c1 [Sample No. 2, (E)-N-methyl-4-(3-aminophenyl)-3-buten-1-amine]	3%	6.04	78%	7%	–
CNC(C)C/C=C/c1cccc(N)c1 (centres unmarked) [Sample No. 3, (E)-N-methyl-5-(3-aminophenyl)-4-penten-2-amine]	6%	6.04	78%	2%	–
(4E)-N-methyl-5-(3,4-methylenedioxyphenyl)-4-penten-2-amine hemigalactarate [Sample No. 4]	–	–	–	–	4.93
(4E)-N-methyl-5-(3-acetamido-4-methylphenyl)-4-penten-2-amine hemigalactarate [Sample No. 10]	–	–	–	–	5.00
(4E)-N-methyl-5-(3-amino-4-methylphenyl)-4-penten-2-amine hemigalactarate [Sample No. 9]	–	–	–	–	5.48
(4E)-N-methyl-5-(3-fluorophenyl)-4-penten-2-amine hemigalactarate [Sample No. 6]	–	–	–	–	5.24
(4E)-N-methyl-5-(4-methyl-3-nitrophenyl)-4-penten-2-amine hemigalactarate [Sample No. 7]	–	–	–	–	5.19
